# Reference: ChEMBL document CHEMBL3044672, “N9- and N7-(Chloromethyl Phenymethyl)Chloropurine Derivatives from , '-Dichloroxylenes: Synthesis and Anticancer Activity” (2005)
# Tests used:
# Assay type in all cases: functional
# [1] = system: SF-539; test: Cytotoxicity against Homo sapiens (human) SF539 cells after 48 hr by sulforhodamine B assay; settings: SF-539, 48 h
# [2] = system: NCI-H226; test: Cytotoxicity against Homo sapiens (human) NCI-H226 cells after 48 hr by sulforhodamine B assay; settings: NCI-H226, 48 h
# [3] = system: ACHN; test: Cytotoxicity against Homo sapiens (human) ACHN cells after 48 hr by sulforhodamine B assay
# [4] = system: SW-620; test: Cytotoxicity against Homo sapiens (human) SW620 cells after 48 hr by sulforhodamine B assay; settings: SW-620, 48 h
# [5] = system: SN12C; test: Cytotoxicity against Homo sapiens (human) SN12C cells after 48 hr by sulforhodamine B assay
# [6] = system: HT-29; test: Cytotoxicity against Homo sapiens (human) HT-29 cells after 48 hr by sulforhodamine B assay; settings: HT-29, 48 h
# [7] = system: OVCAR-8; test: Cytotoxicity against Homo sapiens (human) OVCAR8 cells after 48 hr by sulforhodamine B assay; settings: OVCAR-8, 48 h
# [8] = system: M14; test: Cytotoxicity against Homo sapiens (human) M14 cells after 48 hr by sulforhodamine B assay; settings: M14, 48 h
# [9] = system: T47D; test: Cytotoxicity against Homo sapiens (human) T47D cells after 48 hr by sulforhodamine B assay
# [10] = system: A498; test: Cytotoxicity against Homo sapiens (human) A498 cells after 48 hr by sulforhodamine B assay; settings: A498, 48 h
# [11] = system: MDA-MB-435; test: Cytotoxicity against Homo sapiens (human) MDA-MB-435 cells after 48 hr by sulforhodamine B assay; settings: MDA-MB-435, 48 h
# [12] = system: HOP-92; test: Cytotoxicity against Homo sapiens (human) HOP92 cells after 48 hr by sulforhodamine B assay; settings: HOP-92, 48 h
# [13] = system: NCI-H460; test: Cytotoxicity against Homo sapiens (human) NCI-H460 cells after 48 hr by sulforhodamine B assay; settings: NCI-H460, 48 h
# [14] = system: MCF7; test: Cytotoxicity against Homo sapiens (human) MCF7 cells after 48 hr by sulforhodamine B assay; settings: MCF7, 48 h
# [15] = system: SK-MEL-28; test: Cytotoxicity against Homo sapiens (human) SK-MEL-28 cells after 48 hr by sulforhodamine B assay; settings: SK-MEL-28, 48 h
# [16] = system: IGROV-1; test: Cytotoxicity against Homo sapiens (human) IGROV1 cells after 48 hr by sulforhodamine B assay; settings: IGROV-1, 48 h
# [17] = system: SK-MEL-2; test: Cytotoxicity against Homo sapiens (human) SK-MEL-2 cells after 48 hr by sulforhodamine B assay; settings: SK-MEL-2, 48 h
# [18] = system: SF-295; test: Cytotoxicity against Homo sapiens (human) SF295 cells after 48 hr by sulforhodamine B assay; settings: SF-295, 48 h
# [19] = system: SNB-19; test: Cytotoxicity against Homo sapiens (human) SNB19 cells after 48 hr by sulforhodamine B assay; settings: SNB-19, 48 h
# [20] = system: OVCAR-5; test: Cytotoxicity against Homo sapiens (human) OVCAR5 cells after 48 hr by sulforhodamine B assay; settings: OVCAR-5, 48 h
# [21] = system: PC-3; test: Cytotoxicity against Homo sapiens (human) PC3 cells after 48 hr by sulforhodamine B assay; settings: PC-3, 48 h
# [22] = system: BT-549; test: Cytotoxicity against Homo sapiens (human) BT549 cells after 48 hr by sulforhodamine B assay; settings: BT-549, 48 h
# [23] = system: OVCAR-3; test: Cytotoxicity against Homo sapiens (human) OVCAR3 cells after 48 hr by sulforhodamine B assay; settings: OVCAR-3, 48 h
# [24] = system: DU-145; test: Cytotoxicity against Homo sapiens (human) DU145 cells after 48 hr by sulforhodamine B assay; settings: DU-145, 48 h
# [25] = system: 786-0; test: Cytotoxicity against Homo sapiens (human) 786-0 cells after 48 hr by sulforhodamine B assay; settings: 786-0, 48 h
# [26] = system: EKVX; test: Cytotoxicity against Homo sapiens (human) EKVX cells after 48 hr by sulforhodamine B assay
# [27] = system: SF-268; test: Cytotoxicity against Homo sapiens (human) SF268 cells assessed as cell growth at 10^-4 M after 48 hr by […] assay; settings: SF-268, 48 h, read-out: Activity
# [28] = system: CAKI-1; test: Cytotoxicity against Homo sapiens (human) Caki1 cells after 48 hr by sulforhodamine B assay; settings: CAKI-1, 48 h
# [29] = system: U-251; test: Cytotoxicity against Homo sapiens (human) U251 cells after 48 hr by sulforhodamine B assay; settings: U-251, 48 h
# [30] = system: UO-31; test: Cytotoxicity against Homo sapiens (human) UO31 cells after 48 hr by sulforhodamine B assay; settings: UO-31, 48 h
# [31] = system: SK-MEL-5; test: Cytotoxicity against Homo sapiens (human) SK-MEL-5 cells after 48 hr by sulforhodamine B assay; settings: SK-MEL-5, 48 h
# [32] = system: NCI-H322M; test: Cytotoxicity against Homo sapiens (human) NCI-H322M cells after 48 hr by sulforhodamine B assay
# [33] = read-out: LC50 (the source's name)
structure (smiles),measurement,setting,value
Nc1nc(Cl)c2ncn(Cc3ccccc3CCl)c2n1,LC50 (concentration killing 50% of cells),[1],81.3 µM
same,TGI,[1],38 µM
same,TGI,[2],10 µM
same,CC50,[2]; [33],53.7 µM
same,TGI,[3],21.9 µM
same,CC50,[3]; [33],75.9 µM
same,TGI,[4],11.8 µM
same,CC50,[4]; [33],> 100 µM
same,LC50 (50% lethal concentration),[5],19.5 µM
same,TGI,[5],5.62 µM
same,TGI,[6],19.1 µM
same,CC50,[6]; [33],> 100 µM
same,LC50 (concentration killing 50% of cells),[7],> 100 µM
same,TGI,[7],19.5 µM
same,LC50,[8],> 100 µM
same,TGI,[8],39.8 µM
same,LC50,[9],> 100 µM
same,TGI,[9],83.2 µM
same,"LC50 (lethal concentration, 50% cell kill)",[10],95.5 µM
same,TGI,[10],44.7 µM
same,LC50,[11],> 100 µM
same,TGI,[11],26.9 µM
same,TGI,[12],30.9 µM
same,CC50,[12]; [33],> 100 µM
same,TGI,[13],37.1 µM
same,CC50,[13]; [33],> 100 µM
same,LC50 (concentration killing 50% of cells),[14],87.1 µM
same,TGI,[14],24.6 µM
same,LC50 (concentration killing 50% of cells),[15],74.1 µM
same,TGI,[15],20.9 µM
same,LC50,[16],> 100 µM
same,TGI,[16],> 100 µM
same,LC50 (concentration killing 50% of cells),[17],> 100 µM
same,TGI,[17],81.3 µM
same,TGI,[18],23.4 µM
same,CC50,[18]; [33],63.1 µM
same,LC50,[19],> 100 µM
same,TGI,[19],27.5 µM
same,TGI,[20],39.8 µM
same,CC50,[20]; [33],79.4 µM
same,LC50 (concentration causing 50% cell kill),[21],> 100 µM
same,TGI,[21],67.6 µM
same,LC50 (50% lethal concentration),[22],57.5 µM
same,TGI,[22],22.9 µM
same,LC50,[23],46.8 µM
same,TGI,[23],20 µM
same,LC50,[24],70.8 µM
same,TGI,[24],32.4 µM
same,LC50,[25],> 100 µM
same,TGI,[25],52.5 µM
same,TGI,[26],30.9 µM
same,CC50,[26]; [33],60.3 µM
same,growth at 100 µM,[27],67%
same,TGI,[28],20.4 µM
same,CC50,[28]; [33],50.1 µM
same,LC50 (concentration killing 50% of cells),[29],72.4 µM
same,TGI,[29],13.5 µM
same,LC50 (concentration causing 50% net cell kill),[30],> 100 µM
same,TGI,[30],44.7 µM
same,LC50,[31],75.9 µM
same,TGI,[31],26.3 µM
same,TGI,[32],29.5 µM
same,CC50,[32]; [33],69.2 µM
